# Results published in patent US20170239249A1, “QUINAZOLINE-BASED KINASE INHIBITORS” (Bristol-Myers Squibb Company, priority 2014, published 2017).
# Target: AAK1 (full length human) (Homo sapiens, UniProt Q2M2I8)
# Test: HEK281 Cell-Based Assay (phospho-mu2 Western blot in HEK293F cells transfected with AAK1 and AP2M1)
# Conditions: IC50 (nM), functional potency; inhibition of mu2 phosphorylation in HEK293F cells, 3 hours incubation, 5 concentrations
# Chain of AAK1 (full length human) (Q2M2I8 1-863 isoform Q2M2I8-2): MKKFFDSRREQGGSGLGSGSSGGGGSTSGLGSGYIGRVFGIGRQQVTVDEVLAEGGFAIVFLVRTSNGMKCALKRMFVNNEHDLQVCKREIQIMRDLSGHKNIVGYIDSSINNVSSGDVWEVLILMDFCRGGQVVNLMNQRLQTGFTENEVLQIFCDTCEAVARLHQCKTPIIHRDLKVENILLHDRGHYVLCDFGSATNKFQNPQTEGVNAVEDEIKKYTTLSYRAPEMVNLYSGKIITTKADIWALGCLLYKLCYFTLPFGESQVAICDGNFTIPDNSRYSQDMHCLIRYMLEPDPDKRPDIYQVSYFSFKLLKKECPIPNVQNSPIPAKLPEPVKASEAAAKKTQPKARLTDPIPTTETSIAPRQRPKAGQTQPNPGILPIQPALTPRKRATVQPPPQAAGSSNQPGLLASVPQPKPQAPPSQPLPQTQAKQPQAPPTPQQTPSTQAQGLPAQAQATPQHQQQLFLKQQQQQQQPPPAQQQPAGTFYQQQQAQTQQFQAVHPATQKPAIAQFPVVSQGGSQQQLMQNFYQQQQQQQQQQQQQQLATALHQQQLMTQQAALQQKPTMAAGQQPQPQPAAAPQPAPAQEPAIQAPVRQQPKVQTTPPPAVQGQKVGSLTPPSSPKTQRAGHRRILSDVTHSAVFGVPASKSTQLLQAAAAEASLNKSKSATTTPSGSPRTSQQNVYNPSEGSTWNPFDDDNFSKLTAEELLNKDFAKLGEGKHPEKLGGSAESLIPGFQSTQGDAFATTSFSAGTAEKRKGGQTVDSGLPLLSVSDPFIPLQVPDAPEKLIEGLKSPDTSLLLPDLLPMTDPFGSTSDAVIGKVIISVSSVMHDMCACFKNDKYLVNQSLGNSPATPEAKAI
row,Structure (SMILES),IC50 [nM]
1,"CCc1nc(C(N)C2CCCCC2)nc2ccc(-c3ccncc3)cc12 (single isomer, unassigned; (+)) [Example 8, (+)-Cyclohexyl(4-ethyl-6-(pyridin-4-yl)quinazolin-2-yl)methanamine]",61
2,"CCc1nc(C(N)C2CCCCC2)nc2ccc(-c3ccncc3)cc12 (single isomer, unassigned; (-)) [Example 7, (−)-Cyclohexyl(4-ethyl-6-(pyridin-4-yl)quinazolin-2-yl)methanamine]",8
3,"CCc1nc(C(N)CC2CCCCC2)nc2ccc(-c3ccncc3)cc12 (stereo not drawn) [Example 9, 2-Cyclohexyl-1-(4-ethyl-6-(pyridin-4-yl)quinazolin-2-yl)ethanamine]",260
4,"CCc1nc(CCC2CCCC2)nc2ccc(-c3ccncc3)cc12 [Example 10, 2-(2-Cyclopentylethyl)-4-ethyl-6-(pyridin-4-yl)quinazoline]",4800
5,"CC(C)CC(N)c1nc2ccc(-c3cnco3)cc2c(=O)[nH]1 (stereo not drawn) [Example 12, 2-(1-Amino-3-methylbutyl)-6-(oxazol-5-yl)quinazolin-4-ol]",140
6,"CC(C)CC(N)c1nc2ccc(-c3ccncc3)cc2c(=O)[nH]1 (stereo not drawn) [Example 13, 2-(1-Amino-3-methylbutyl)-6-(pyridin-4-yl)quinazolin-4-ol]",93
7,"CC(C)CC(N)c1nc(N2CCCC2)c2cc(-c3cnco3)ccc2n1 (stereo not drawn) [Example 19, 3-Methyl-1-(6-(oxazol-5-yl)-4-(pyrrolidin-1-yl)quinazolin-2-yl)butan-1-amine]",760
8,"CNc1nc(C(N)CC(C)C)nc2ccc(-c3ccncc3)cc12 (stereo not drawn) [Example 23, 2-(1-Amino-3-methylbutyl)-N-methyl-6-(pyridin-4-yl)quinazolin-4-amine]",79
9,"CCNc1nc(C(N)CC(C)C)nc2ccc(-c3ccncc3)cc12 (stereo not drawn) [Example 24, 2-(1-Amino-3-methylbutyl)-N-ethyl-6-(pyridin-4-yl)quinazolin-4-amine]",86
10,"CCN(CC)c1nc(C(N)CC(C)C)nc2ccc(-c3ccncc3)cc12 (stereo not drawn) [Example 25, 2-(1-Amino-3-methylbutyl)-N,N-diethyl-6-(pyridin-4-yl)quinazolin-4-amine]",22
11,"COc1cnccc1-c1ccc2nc(CCC(C)C)nc(N(C)C)c2c1 [Example 29, 2-Isopentyl-6-(3-methoxypyridin-4-yl)-N,N-dimethylquinazolin-4-amine]",54
12,"CC(C)CCc1nc(C#N)c2cc(-c3cnco3)ccc2n1 [Example 31, 2-Isopentyl-6-(oxazol-5-yl)quinazoline-4-carbonitrile]",640
13,"CC(C)CC(N)c1nc(C#N)c2cc(-c3ccncc3)ccc2n1 (stereo not drawn) [Example 33, 2-(1-Amino-3-methylbutyl)-6-(pyridin-4-yl)quinazoline-4-carbonitrile]",14
14,"COc1cnccc1-c1ccc2nc(C(N)CC(C)C)nc(C#N)c2c1 (stereo not drawn) [Example 34, 2-(1-Amino-3-methylbutyl)-6-(3-methoxypyridin-4-yl)quinazoline-4-carbonitrile]",12
15,"COc1cc2nc(C(N)CC(C)C)nc(C#N)c2cc1-c1ccncc1 (stereo not drawn) [Example 35, 2-(1-Amino-3-methylbutyl)-7-methoxy-6-(pyridin-4-yl)quinazoline-4-carbonitrile]",68
16,"COc1nc(CCC(C)C)nc2ccc(-c3cn[nH]c3)cc12 [Example 37, 2-Isopentyl-4-methoxy-6-(1H-pyrazol-4-yl)quinazoline]",1010
17,"COc1nc(CCC(C)C)nc2ccc(-c3ccncc3)cc12 [Example 38, 2-Isopentyl-4-methoxy-6-(pyridin-4-yl)quinazoline]",1070
18,"CNc1nc(CCC(C)C)nc2ccc(-c3cnco3)cc12 [Example 39, 2-Isopentyl-N-methyl-6-(oxazol-5-yl)quinazolin-4-amine]",1140
19,"CC(C)CCc1nc(N(C)C)c2cc(-c3cnco3)ccc2n1 [Example 40, 2-Isopentyl-N,N-dimethyl-6-(oxazol-5-yl)quinazolin-4-amine]",412
20,"COc1nc(CCC(C)C)nc2ccc(-c3cnco3)cc12 [Example 41, 5-(2-Isopentyl-4-methoxyquinazolin-6-yl)oxazole]",3150
21,"CC(C)CCc1nc2ccc(-c3cnco3)cc2c(=O)[nH]1 [Example 42, 2-Isopentyl-6-(oxazol-5-yl)quinazolin-4(3H)-one]",49
22,"CSc1nc(CCC(C)C)nc2ccc(-c3cnco3)cc12 [Example 43, 5-(2-Isopentyl-4-(methylthio)quinazolin-6-yl)oxazole]",159
23,"CC(C)CCc1nc(NCCN)c2cc(-c3cnco3)ccc2n1 [Example 44, N^1-(2-Isopentyl-6-(oxazol-5-yl)quinazolin-4-yl)ethane-1,2-diamine]",2010
24,"CCc1nc(CCC(C)C)nc2ccc(-c3ccncc3)cc12 [Example 45, 4-Ethyl-2-isopentyl-6-(pyridin-4-yl)quinazoline]",400
25,"CC(C)CCc1nc(C(C)C)c2cc(-c3ccncc3)ccc2n1 [Example 46, 2-Isopentyl-4-isopropyl-6-(pyridin-4-yl)quinazoline]",1390

# The next lines start with the values.
row,IC50 [nM],Structure (SMILES)
1,87,"CCc1nc(C(N)CC(C)C)nc2cc(OC)c(-c3cnco3)cc12 (single isomer, unassigned; enantiomer 1) [Example 86, 1-(4-Ethyl-7-methoxy-6-(oxazol-5-yl)quinazolin-2-yl)-3-methylbutan-1-amine (Enantiomer 1)]"
2,13,"CCc1nc(C(N)CC(C)C)nc2cc(OC)c(-c3cnco3)cc12 (single isomer, unassigned; enantiomer 2) [Example 87, 1-(4-Ethyl-7-methoxy-6-(oxazol-5-yl)quinazolin-2-yl)-3-methylbutan-1-amine (Enantiomer 2)]"
3,420,"CC(C)CC(N)c1ncc2cc(-c3cnco3)ccc2n1 (stereo not drawn) [Example 1, 3-Methyl-1-(6-(oxazol-5-yl)quinazolin-2-yl)butan-1-amine]"
4,170,"Cc1nc(C(N)CC(C)C)nc2ccc(-c3cnco3)cc12 (stereo not drawn) [Example 2, 3-Methyl-1-(4-methyl-6-(oxazol-5-yl)quinazolin-2-yl)butan-1-amine]"
5,77,"CCc1nc(C(N)CC(C)C)nc2ccc(-c3cnco3)cc12 (stereo not drawn) [Example 3, 1-(4-Ethyl-6-(oxazol-5-yl)quinazolin-2-yl)-3-methylbutan-1-amine]"
6,5300,"CCCc1nc(C(N)CC(C)C)nc2ccc(-c3cnco3)cc12 (stereo not drawn) [Example 4, 3-Methyl-1-(6-(oxazol-5-yl)-4-propylquinazolin-2-yl)butan-1-amine]"
7,75,"CCc1nc(C(N)CC(C)C)nc2c(OC)cc(-c3cnco3)cc12 (stereo not drawn) [Example 5, 1-(4-Ethyl-8-methoxy-6-(oxazol-5-yl)quinazolin-2-yl)-3-methylbutan-1-amine]"
8,36,"CCc1nc(C(N)CC(C)C)nc2ccc(-c3ccncc3OC)cc12 (stereo not drawn) [Example 6, 1-(4-Ethyl-6-(3-methoxypyridin-4-yl)quinazolin-2-yl)-3-methylbutan-1-amine]"
9,360,"COc1c(-c2cnco2)ccc2nc(C(N)CC(C)C)ncc12 (stereo not drawn) [Example 11, 1-(5-Methoxy-6-(oxazol-5-yl)quinazolin-2-yl)-3-methylbutan-1-amine]"
10,230,"COc1nc(C(N)CC(C)C)nc2ccc(-c3cnco3)cc12 (stereo not drawn) [Example 14, 1-(4-Methoxy-6-(oxazol-5-yl)quinazolin-2-yl)-3-methylbutan-1-amine]"
11,410,"CCOc1nc(C(N)CC(C)C)nc2ccc(-c3cnco3)cc12 (stereo not drawn) [Example 15, 1-(4-Ethoxy-6-(oxazol-5-yl)quinazolin-2-yl)-3-methylbutan-1-amine]"
12,210,"CNc1nc(C(N)CC(C)C)nc2ccc(-c3cnco3)cc12 (stereo not drawn) [Example 16, 2-(1-Amino-3-methylbutyl)-N-methyl-6-(oxazol-5-yl)quinazolin-4-amine]"
13,360,"CC(C)CC(N)c1nc(N(C)C)c2cc(-c3cnco3)ccc2n1 (stereo not drawn) [Example 17, 2-(1-Amino-3-methylbut)-N,N-dimethyl-6-(oxazol-5-yl)quinazolin-4-amine]"
14,130,"CCN(CC)c1nc(C(N)CC(C)C)nc2ccc(-c3cnco3)cc12 (stereo not drawn) [Example 18, 2-(1-Amino-3-methylbutyl)-N,N-diethyl-6-(oxazol-5-yl)quinazolin-4-amine]"
15,850,"CCNc1nc(C(N)CC(C)C)nc2ccc(-c3cnco3)cc12 (stereo not drawn) [Example 20, 2-(1-Amino-3-methylbutyl)-N-ethyl-6-(oxazol-5-yl)quinazolin-4-amine]"
16,1200,"CC(C)CC(N)c1nc(NCCO)c2cc(-c3cnco3)ccc2n1 (stereo not drawn) [Example 21, 2-((2-(1-Amino-3-methylbutyl)-6-(oxazol-5-yl)quinazolin-4-yl)amino)ethanol]"
17,1300,"COCCNc1nc(C(N)CC(C)C)nc2ccc(-c3cnco3)cc12 (stereo not drawn) [Example 22, 2-(1-Amino-3-methylbutyl)-N-(2-methoxyethyl)-6-(oxazol-5-yl)quinazolin-4-amine]"
18,31,"COc1cnccc1-c1ccc2nc(C(N)CC(C)C)nc(N(C)C)c2c1 (stereo not drawn) [Example 26, 2-(1-Amino-3-methylbutyl)-6-(3-methoxypyridin-4-yl)-N,N-dimethylquinazolin-4-amine]"
19,20,"CCN(CC)c1nc(C(N)CC(C)C)nc2ccc(-c3ccncc3OC)cc12 (stereo not drawn) [Example 27, 2-(1-Amino-3-methylbutyl)-N,N-diethyl-6-(3-methoxypyridin-4-yl)quinazolin-4-amine]"
20,380,"CCNc1nc(C(N)CC(C)C)nc2ccc(-c3ccncc3OC)cc12 (stereo not drawn) [Example 28, 2-(1-Amino-3-methylbutyl)-N-ethyl-6-(3-methoxypyridin-4-yl)quinazolin-4-amine]"
21,17,"CC(C)CC(N)c1nc(C#N)c2cc(-c3cnco3)ccc2n1 (stereo not drawn) [Example 30, 2-(1-Amino-3-methylbutyl)-6-(oxazol-5-yl)quinazoline-4-carbonitrile]"
22,6,"COc1cc2nc(C(N)CC(C)C)nc(C#N)c2cc1-c1cnco1 (stereo not drawn) [Example 32, 2-(1-Amino-3-methylbutyl)-7-methoxy-6-(oxazol-5-yl)quinazoline-4-carbonitrile]"
23,113,"COc1cc2nc([C@H](N)CC(C)C)ncc2cc1-c1cnco1 [Example 36, (R)-1-(7-Methoxy-6-(oxazol-5-yl)quinazolin-2-yl)-3-methylbutan-1-amine]"
